Reference: patent publication US20200131669A1, “CYCLIC PEPTIDE COMPOUND HAVING HIGH MEMBRANE PERMEABILITY, AND LIBRARY CONTAINING SAME” (Chugai Seiyaku Kabushiki Kaisha, priority 2017, published 2020)
Starred links: 1 amine or outer side, 2 acyl side, 3 side chain; linkers in the order of their positions; H or OH if unused. Positions of bridges follow the written chain, without caps; N, C: chain ends. Non-standard residues stand in square brackets, D forms with d. Residues, ends and D or L forms follow the SMILES beside them. *: point of attachment. NMePhe(3-Cl) = CN[C@@H](Cc1cccc(Cl)c1)C(=O)O; X16 = O=C(C1CCCCC1)[C@H](CC(=O)[*:2])N[*:1]; NMeF = CN[C@@H](Cc1ccccc1)C(=O)O; NMeGABA = CN(CCCC(=O)[*:2])[*:1]; 3Pal = N[C@@H](Cc1cccnc1)C(=O)O; 4Pal = N[C@@H](Cc1ccncc1)C(=O)O; NMeD = CN[C@@H](CC(=O)O)C(=O)O; NMeL = CN[C@@H](CC(C)C)C(=O)O; NMeV = CN[C@H](C(=O)O)C(C)C; NMeA = CN[C@@H](C)C(=O)O; Piperidide = C1CCN(*)CC1; dNMeA = CN[C@H](C)C(=O)O; Abu = CC[C@H](N)C(=O)O; Sar = CNCC(=O)O; tBu = CC(C)(C)*

Experiment: Caco-2 membrane permeability, improved method as used in the following Examples (96-well, 20 to 24 h preincubation)
Assay type: in vitro ADME
Settings: human, Caco-2, Caco-2 (cm/sec)
In short: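 Papp (cm/sec) was derived from LC/MS of basal samples collected 180 min after apical dosing in FaSSIF/HBSS pH 6.0 with 1% DMSO, against a basal HBSS pH 7.4 receiver containing 4% BSA. Three-week Caco-2 cultures were first preincubated with compound in DMEM+FaSSIF at 37 °C for 20–24 h.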

| Compound | Papp A→B at 180 min [×10⁻⁶ cm/s] |
| --- | --- |
| CC(C)C[C@H]1C(=O)N[C@@H](COC(C)(C)C)C(=O)N(C)[C@@H](Cc2ccccc2)C(=O)N(C)[C@@H](CC(C)C)C(=O)N[C@H](C(=O)N2CCCCC2)CC(=O)N2CCC[C@H]2C(=O)N(C)[C@@H](Cc2cccc(Cl)c2)C(=O)N[C@@H](C(C)C)C(=O)N(C)[C@@H](C(C)C)C(=O)N[C@@H]([C@@H](C)O)C(=O)N(C)CC(=O)N1C [pd156] (P[NMePhe(3-Cl)]V[NMeV]T[Sar][NMeL]S(tBu)[NMeF][NMeL]D-Piperidide; lactam N-11) | 2.9 |
| CC(C)C[C@@H]1NC(=O)[C@H](Cc2cccc(Cl)c2)N(C)C(=O)[C@@H](C)NC(=O)C[C@@H](C(=O)N2CCCCC2)NC(=O)[C@H](CC(C)C)N(C)C(=O)[C@H](Cc2ccccc2)N(C)C(=O)[C@H](COC(C)(C)C)NC(=O)[C@H](C(C)C)N(C)C(=O)CN(C)C(=O)[C@H]([C@@H](C)O)NC(=O)[C@H](CC(C)C)N(C)C1=O [pd157] ([dA][NMePhe(3-Cl)]L[NMeL]T[Sar][NMeV]S(tBu)[NMeF][NMeL]D-Piperidide; lactam N-11) | 2.2 |
| CC[C@H](C)[C@@H]1NC(=O)[C@H](Cc2ccccc2)N(C)C(=O)CN(C)C(=O)C[C@@H](C(=O)N2CCCCC2)NC(=O)[C@H](C(C)C)N(C)C(=O)[C@H](COC(C)(C)C)NC(=O)[C@H](CC(C)C)N(C)C(=O)[C@H](Cc2cccc(Cl)c2)N(C)C(=O)CN(C)C(=O)[C@H]([C@@H](C)O)NC(=O)[C@H](CC(C)C)N(C)C1=O [pd158] ([Sar][NMeF]I[NMeL]T[Sar][NMePhe(3-Cl)][NMeL]S(tBu)[NMeV]D-Piperidide; lactam N-11) | 1.4 |
| CC(C)C[C@H]1C(=O)N[C@@H](COC(C)(C)C)C(=O)N(C)[C@@H](Cc2ccccc2)C(=O)N(C)[C@@H](CC(C)C)C(=O)N(C)[C@H](C(=O)N2CCCCC2)CC(=O)N[C@H](C)C(=O)N(C)[C@@H](Cc2cccc(Cl)c2)C(=O)N[C@@H](C(C)C)C(=O)N(C)[C@@H](C(C)C)C(=O)N[C@@H]([C@@H](C)O)C(=O)N(C)CC(=O)N1C [pd159] ([dA][NMePhe(3-Cl)]V[NMeV]T[Sar][NMeL]S(tBu)[NMeF][NMeL][NMeD]-Piperidide; lactam N-11) | 1.8 |
| CC(C)C[C@H]1C(=O)N[C@@H](COC(C)(C)C)C(=O)N(C)[C@@H](Cc2ccccc2)C(=O)N(C)[C@@H](CC(C)C)C(=O)N(C)[C@H](C(=O)N2CCCCC2)CC(=O)N[C@@H](C)C(=O)N(C)[C@@H](Cc2cccc(Cl)c2)C(=O)N[C@@H](C(C)C)C(=O)N(C)[C@@H](C(C)C)C(=O)N[C@@H]([C@@H](C)O)C(=O)N(C)CC(=O)N1C [pd160] (A[NMePhe(3-Cl)]V[NMeV]T[Sar][NMeL]S(tBu)[NMeF][NMeL][NMeD]-Piperidide; lactam N-11) | 3.4 |
| CC(C)C[C@@H]1NC(=O)[C@H](C)N(C)C(=O)C[C@@H](C(=O)N2CCCCC2)NC(=O)[C@H](CC(C)C)N(C)C(=O)CN(C)C(=O)[C@H]([C@@H](C)O)NC(=O)[C@H](CC(C)C)N(C)C(=O)[C@H](Cc2cccc(Cl)c2)N(C)C(=O)[C@H](C)NC(=O)[C@H](Cc2ccccc2)N(C)C(=O)[C@H](CC(C)C)N(C)C1=O [pd161] ([NMeA]L[NMeL][NMeF]A[NMePhe(3-Cl)][NMeL]T[Sar][NMeL]D-Piperidide; lactam N-11) | 1.4 |
| CC[C@@H]1NC(=O)[C@H](C(C)C)N(C)C(=O)[C@@H](C(C)C)NC(=O)C[C@@H](C(=O)N2CCCCC2)NC(=O)[C@H](CC(C)C)N(C)C(=O)[C@H](Cc2cccc(Cl)c2)N(C)C(=O)[C@H](COC(C)(C)C)NC(=O)[C@H](CC(C)C)N(C)C(=O)CN(C)C(=O)[C@H](Cc2cccnc2)NC(=O)[C@H](CC(C)C)N(C)C1=O [pd164] ([dV][NMeV][Abu][NMeL][3Pal][Sar][NMeL]S(tBu)[NMePhe(3-Cl)][NMeL]D-Piperidide; lactam N-11) | 1.6 |
| CC(C)C[C@H]1C(=O)N[C@@H](COC(C)(C)C)C(=O)N(C)[C@@H](Cc2ccccc2)C(=O)N(C)[C@@H](CC(C)C)C(=O)N(C)[C@H](C(=O)N2CCCCC2)CC(=O)N2CCC[C@@H]2C(=O)N(C)[C@@H](Cc2cccc(Cl)c2)C(=O)N[C@@H](C(C)C)C(=O)N(C)[C@@H](C(C)C)C(=O)N[C@@H]([C@@H](C)O)C(=O)N(C)CC(=O)N1C [pd165] ([dP][NMePhe(3-Cl)]V[NMeV]T[Sar][NMeL]S(tBu)[NMeF][NMeL][NMeD]-Piperidide; lactam N-11) | 2.8 |
| CC(C)C[C@H]1C(=O)N[C@@H](COC(C)(C)C)C(=O)N(C)[C@@H](Cc2ccccc2)C(=O)N(C)[C@@H](CC(C)C)C(=O)N(C)[C@H](C(=O)N2CCCCC2)CC(=O)N2CCC[C@H]2C(=O)N(C)[C@@H](Cc2cccc(Cl)c2)C(=O)N[C@@H](C(C)C)C(=O)N(C)[C@@H](C(C)C)C(=O)N[C@@H]([C@@H](C)O)C(=O)N(C)CC(=O)N1C [pd166] (P[NMePhe(3-Cl)]V[NMeV]T[Sar][NMeL]S(tBu)[NMeF][NMeL][NMeD]-Piperidide; lactam N-11) | 3.2 |
| CC(C)C[C@H]1C(=O)N[C@@H](COC(C)(C)C)C(=O)N(C)[C@@H](Cc2ccccc2)C(=O)N(C)[C@@H](CC(C)C)C(=O)N(C)[C@H](C(=O)N2CCCCC2)CC(=O)N(C)[C@H](C)C(=O)N(C)[C@@H](Cc2cccc(Cl)c2)C(=O)N[C@@H](C(C)C)C(=O)N(C)[C@@H](C(C)C)C(=O)N[C@@H]([C@@H](C)O)C(=O)N(C)CC(=O)N1C [pd168] ([dNMeA][NMePhe(3-Cl)]V[NMeV]T[Sar][NMeL]S(tBu)[NMeF][NMeL][NMeD]-Piperidide; lactam N-11) | 2.3 |
| CC(C)C[C@H]1C(=O)N[C@@H](COC(C)(C)C)C(=O)N(C)[C@@H](Cc2ccccc2)C(=O)N(C)[C@@H](CC(C)C)C(=O)N(C)[C@H](C(=O)N2CCCCC2)CC(=O)N(C)[C@@H](C)C(=O)N(C)[C@@H](Cc2cccc(Cl)c2)C(=O)N[C@@H](C(C)C)C(=O)N(C)[C@@H](C(C)C)C(=O)N[C@@H]([C@@H](C)O)C(=O)N(C)CC(=O)N1C [pd169] ([NMeA][NMePhe(3-Cl)]V[NMeV]T[Sar][NMeL]S(tBu)[NMeF][NMeL][NMeD]-Piperidide; lactam N-11) | 3.8 |
| CC[C@H](C)[C@@H]1NC(=O)[C@H](CC(C)C)N(C)C(=O)CCCN(C)C(=O)C[C@@H](C(=O)C2CCCCC2)NC(=O)[C@H](CC(C)C)N(C)C(=O)[C@H](C)N(C)C(=O)[C@H](Cc2ccncc2)NC(=O)[C@H](CC(C)C)N(C)C(=O)[C@H](COC(C)(C)C)NC(=O)[C@H](Cc2cccc(Cl)c2)N(C)C(=O)[C@H](CC(C)C)N(C)C1=O [pd170] (cyclo([4Pal][NMeA][NMeL][X16][NMeGABA][NMeL]I[NMeL][NMePhe(3-Cl)]S(tBu)[NMeL])) | 1.6 |
